# Article PMC8226262, “Licarin-B Exhibits Activity Against the Toxoplasma gondii RH Strain by Damaging Mitochondria and Activating Autophagy” (Frontiers in Cell and Developmental Biology, 2021)
# Assays:
# T. gondii tachyzoites [1] = assay: In vivo parasite burden in tissues and blood (qPCR); parameters: species or system BALB/c mice; settings: 50 mg/kg⋅bw, acutely infected mice
# Experimental: To evaluate the therapeutic effect of licarin-B on acute infection, mice were infected intraperitoneally with 1 × 10^4 tachyzoites and then divided into three groups (six mice/group) for treatment with PBS (as a parasite control), licarin-B (50 mg/kg⋅bw), or a positive control drug, as described above ([Zhang J.L. et al., 2019]). The treatments were administered for 4 consecutive days, and then, the number of parasites in the tissue and blood samples were deduced from standard curves constructed using known numbers of tachyzoites, as previously described.
# [2] = tested on: extracellular T. gondii tachyzoites; assay: DAPI staining of the nucleus; format: cell-based, Toxoplasma gondii; settings: 18, 27, or 36 μg/mL for 16 h
# Experimental: Extracellular parasites (1 × 10^5 per group) were incubated in DMEM with licarin-B (18, 27, or 36 μg/mL) or without any drug (as a control) for 16 h at 37°C. All the samples were stained with 4′,6-diamidino-2-phenylindole (DAPI) at 37°C for 10 min, and fluorescence intensity was observed by laser confocal microscopy.
# [3] = tested on: extracellular T. gondii tachyzoites; assay: Flow cytometry analysis of T. gondii survival (annexin V-PE / 7-AAD); format: cell-based, Toxoplasma gondii; settings: 24 h
# Experimental: Approximately 1 × 10^6 extracellular tachyzoites were incubated with licarin-B (18 or 36 μg/mL) in DMEM or with no drug as a control for 24 h, followed by centrifugation at 1,500 × g for 10 min. The samples were washed with PBS and suspended in 100 μL of binding buffer with 5 μL of annexin V-PE and 5 μL of 7-AAD dye in the dark for 20 min at 37°C. Double mixtures were acquired and analyzed by flow cytometry (BD FACSVerse, United States) ([Giovati et al., 2018]). The experiment was repeated three times.
# [4] = tested on: extracellular T. gondii tachyzoites; assay: MitoTracker Red CMXRos staining (mitochondrial membrane potential); format: cell-based, Toxoplasma gondii
# Experimental: Extracellular parasites (1 × 10^5 per group) were incubated in DMEM with licarin-B (18 μg/mL) for 4, 8, or 16 h at 37°C; with licarin-B (18, 27, or 36 μg/mL) for 8 h at 37°C; or without any drug (as a control). Then, all the samples were stained with the MitoTracker Red CMXRos probe (50 nM, Invitrogen, United States) for 20 min. ([Zhang J.L. et al., 2019]). The fluorescence intensity was observed by laser confocal microscopy (ZEISS LSM-800, Jena, Germany).
# [5] = tested on: T. gondii tachyzoites in HFFs; assay: Transmission electron microscopy of tachyzoites; format: cell-based, Toxoplasma gondii; settings: 18 μg/mL
# Experimental: For transmission electron microscopy (TEM) analysis, HFFs were seeded to confluence in T25 flasks and infected with 1.5 × 10^6 T. gondii tachyzoites for 8 h. After the addition of 18 μg/mL licarin-B, the cells were cultured for 4, 8, or 16 h, digested with TrypLE Express for 2 min, washed twice with PBS, fixed with 2.5% glutaraldehyde at 4°C for 12 h, washed with PBS to remove glutaraldehyde and post-fixed with 1% osmium acid solution for 1.5 h in the dark. The samples were then washed with PBS, dehydrated in a graded alcohol series, dehydrated in acetone and embedded in Epon. Ultrathin sections were stained with uranyl acetate and lead citrate and observed under a transmission electron microscope (Tecnai Spirit Bio-TWIN, Thermo Fisher Scientific, FEI, United States).
# [6] = tested on: T. gondii invasion of HFFs; assay: Anti-invasion assessment in vitro (qPCR); format: cell-based, Toxoplasma gondii; settings: 4.5–22.5 μg/mL, 2 h of infection
# Experimental: Human foreskin fibroblasts were seeded in 6-well plates and incubated with different concentrations of licarin-B (4.5, 9, 13.5, 18, or 22.5 μg/mL), sulfadiazine (0.4 μg/mL, as a positive control) or without drugs in DMEM supplemented with 1% FBS and then infected with 3 × 10^6 fresh parasites per well. The anti-invasion capability of licarin-B was determined by qPCR after 2 h of infection, as described in a previous study ([Zhang J.L. et al., 2019]). Triplicate independent experiments were performed.
# [7] = tested on: T. gondii tachyzoite intracellular proliferation in HFFs; assay: Anti-proliferation activity of licarin-B (qPCR); format: cell-based, Toxoplasma gondii; settings: 24 h
# Experimental: DMEM without drugs was used as a parasite control. […] After 24 h, the cells were washed twice with PBS, and total genomic DNA from the cells was obtained as described in a previous study ([Zhang J.L. et al., 2019]). […] The results represent the means ± standard deviations (SD) from at least three independent experiments. The EC50 of licarin-B for tachyzoite growth inhibition was plotted as a function of the compound concentration via non-linear curve analysis using SPSS 19.0 software (SPSS Inc., Chicago, IL, United States). The results of the anti-invasion and anti-proliferation tests, the in vivo assays of the survival rate and parasite burden and data comparisons between the parasite control and treatment groups were statistically analyzed by one-way analysis of variance (ANOVA) using SPSS software.
# T. gondii tachyzoites [8] = assay: Monodansylcadaverine (MDC) staining of autophagosomes; format: cell-based, Toxoplasma gondii
# Experimental: For each sample, approximately 1 × 10^5 tachyzoites were treated with licarin-B (18 μg/mL) in DMEM for 4, 8, or 16 h at 37°C; licarin-B (18, 27, or 36 μg/mL) in DMEM for 8 h at 37°C; or no drug (as a control) in DMEM. Then, the samples were washed with PBS (pH 7.4), suspended in monodansylcadaverine (MDC) working solution (100 μM) at 37°C for 1 h after centrifugation, and washed twice with PBS. The tachyzoites were resuspended in 500 μL of PBS, and the fluorescence in each group was visualized by laser scanning confocal microscopy.
# [9] = Dose safety assessment in vivo; settings: mice treated with the tested doses (25 or 50 mg/kg⋅bw) for 30 days
# Experimental: Dose safety assessment in vivo was performed to determine safe doses of licarin-B, as previously described.
# T. gondii tachyzoites [10] = assay: In vivo survival of acutely infected mice; parameters: species or system BALB/c mice; settings: 30-day test period
# Experimental: The therapeutic effect on acute infection was evaluated as described by Zhang; female BALB/c mice were divided into four groups consisting of 10 mice each, and each mouse was injected with 2 × 10^3 tachyzoites by intraperitoneal injection. Then, the mice were treated with licarin-B (25 or 50 mg/kg⋅bw), the positive drugs (100 mg/kg⋅bw sulfadiazine, 50 mg/kg⋅bw pyrimethamine, or 15 mg/kg⋅bw folinic acid) or PBS (as control) ([Si et al., 2018]). Positive drugs were administered by oral administration, and licarin-B was administered by intraperitoneal injection. […] The survival times of the infected mice and the number of deaths were monitored and recorded twice daily for 30 days.
# [11] = tested on: T. gondii tachyzoites (strain RH) in HFFs; assay: In vitro screening of anti-T. gondii activity (Giemsa staining, qPCR); format: cell-based, Toxoplasma gondii; settings: 24 h
# Experimental: Human foreskin fibroblasts were seeded in 6-well plates and infected with 3 × 10^4 fresh T. gondii tachyzoites. After 8 h, the natural compounds in DMEM supplemented with 1% FBS were added. Sulfadiazine and pyrimethamine were included as positive drug controls. After incubation for 24 h, the cells were washed twice with PBS, stained with Giemsa, and observed by light microscopy. In addition, total DNA was isolated from the cells using DNAiso Reagent (Takara), and a 529-bp repeat element was amplified by quantitative polymerase chain reaction (qPCR) with the following primers: Tox-F (5′-AGGAGAGATATCAGGACTGTAG-3′), Tox-R (5′-GCGTCGTCTCGTCTAGATCG-3′), and the Taqman probe Tox-TP (6-Fam CCGGCTTGGCTGCTTTTCCT BHQ1), as described in a previous study ([Zhang J.L. et al., 2019]). The inhibition rates against T. gondii proliferation for the natural compounds at concentrations with no HFF toxicity were calculated, and the inhibition rate in each treatment group was presented as the % of the control group. The experiment was repeated three times.
# T. gondii [12] = tested on: T. gondii; parameters: method as in Zhang J. et al., 2019; settings: 50 mg/kg.bw; ref Zhang J. et al., 2019; cited from earlier work
# T. gondii [13] = settings: ref Zhang J. et al., 2019; cited from earlier work
structure (smiles),measurement,setting,value
"C/C=C/c1cc(OC)c2c(c1)C(C)[C@@H](c1ccc3c(c1)OCO3)O2 (stereo partly drawn) [Licarin-B, 5-[(2S)-2,3-D\dihydro-7-methoxy-3β-methyl-5-[(E)-1-propenyl]benzofuran-2-yl]-1,3-benzodioxole]","Parasite loads in the blood and brain, liver, and spleen tissues vs parasite control",T. gondii tachyzoites [1],significantly (p < 0.01) reduced the parasite loads
same,DAPI staining of parasite nuclei,[2],diffuse fluorescent signal in the parasite nuclei
same,T. gondii survival rate,[3]; 18 μg/mL,approximately 45%
same,T. gondii survival rate,[3]; 36 μg/mL,~26%
same,Mitochondrial membrane potential (ΔΨm),"[4]; 18 μg/mL for 4, 8, or 16 h",decreased the ΔΨm in T. gondii in a time-dependent manner
same,Mitochondrial membrane potential (ΔΨm),"[4]; 18, 27, or 36 μg/mL for 8 h",the ΔΨm was reduced in a dose-dependent manner
same,Ultrastructural changes in tachyzoites (TEM),[5]; 4 h,slight mitochondrial swelling and a double membrane structure
same,Ultrastructural changes in tachyzoites (TEM),[5]; 8 h,"mitochondrial swelling, cristae disruption, vacuole formation, and an autophagy-like double membrane structure in the cytoplasm"
same,Ultrastructural changes in tachyzoites (TEM),[5]; 16 h,"extensive clefts around the nucleus, nuclear membrane disappearance, and progressive degeneration of the parasites"
same,Inhibition of T. gondii invasion vs control,[6],significantly (p < 0.01) inhibited T. gondii invasion
same,Inhibition of T. gondii tachyzoite intracellular proliferation vs control,[7]; 4.5–45 μg/mL,significantly (p < 0.01) inhibited T. gondii tachyzoite intracellular proliferation in a concentration-dependent manner
same,EC50 for T. gondii tachyzoite growth inhibition,[7]; intracellular proliferation in HFFs,14.05 ± 3.96 µg/mL
same,MDC labelling of autophagosomes,"T. gondii tachyzoites [8]; 18 μg/mL for 4, 8, or 16 h",some parasites were positive for MDC
same,MDC labelling of autophagosomes,"T. gondii tachyzoites [8]; 18, 27, and 36 μg/mL for 8 h",autophagy was induced in T. gondii in a concentration-dependent manner
same,Clinical toxicity,[9],no discernible clinical toxicity was observed
same,Survival rate of infected mice,T. gondii tachyzoites [10]; 25 mg/kg⋅bw intraperitoneal once daily for 15 days,60%
same,Survival rate of infected mice,T. gondii tachyzoites [10]; 50 mg/kg⋅bw intraperitoneal once daily for 15 days,90%
same,Mean inhibition rate (% of control),"[11]; 200 μg/mL, T. gondii proliferation in HFFs",99.76 ± 5.81%
same,Parasitophorous vacuoles (PVs) in host cells,"[11]; Giemsa staining, maximum concentration safe for HFFs (licarin-B 200 μg/mL)",no parasitophorous vacuoles (PVs) in host cells
C=CCc1cc(OC)c(O[C@@H](C)[C@H](O)c2ccc(O)c(OC)c2)c(OC)c1 [myrislignan],Survival rate in mice upon acute infection,T. gondii [12],50%
same,"EC50, anti-T. gondii activity",T. gondii [13],32.41 µg/mL
